Reference: patent US10981932B2, “Macrocyclic indole derivatives” (Bayer Aktiengesellschaft, priority 2016, dated 2021)
Several values for one entry are separate records, joined by “and”; a condition that tells them apart may be missing. Equal entries are not always repeated. Where two headings read alike, the source gives them in different places.

How the values were obtained:
SUDHL5 [1] = assay: Induction of caspase-3/7 activity (Caspase-Glo 3/7), SUDHL5; assay type: cell-based; details: caspase-3/7 induction, SUDHL5 cells, 3 h treatment, median
Procedure: (§1) Induction of Caspase-317 Activity Upon Treatment of Cells with Selected Compounds
(§2) The BH3-domain of MCL-1 sequesters pro-apoptotic proteins, thereby inhibiting apoptosis. In contrast, MCL-1 inhibitors are expected to antagonize this effect leading to an increase in apoptosis, which can be determined by measuring the activity of caspase-3/7.
(§3) The activity of caspase-3/7 was determined in DLBCL (Diffuse large B-cell lymphoma) cell lines (SUDHL5 and SUDHL10) upon treatment with different compounds, using the Caspase-Glo® 3/7 reagent from Promega (G8092).
(§4) Rim wells were excluded. The cells were incubated for 3 h hours in a humidified incubator at 37° C.
(§5) For the evaluation of the results, the background measured with “medium-only” was subtracted from all other values. […] The Bella DRC Master Sheet was used to calculate EC50s, with fixed C0=1 and CI=plateaulmax induction for the reference compound.

SUDHL10 [2] = assay: Induction of cytotoxicity (CellTiter-Glo, 5 h), SUDHL10
SUDHL5 [3] = assay: Induction of cytotoxicity (CellTiter-Glo, 5 h), SUDHL5
SUDHL10 [4] = assay: Induction of caspase-3/7 activity (Caspase-Glo 3/7), SUDHL10; assay type: cell-based; details: caspase-3/7 induction, SUDHL10 cells, 3 h treatment, median
Procedure: as §1, §2, §3, §4, §5

MCL-1 = MCL-1 (Homo sapiens, UniProt Q07820); assay: Protein-protein interaction assay MCL-1/Noxa BH3 peptide (MCL-1 assay), TR-FRET; assay type: binding; details: MBP-MCL-1 / Noxa BH3-derived peptide, median
Sequence of MCL-1 (Q07820 whole entry): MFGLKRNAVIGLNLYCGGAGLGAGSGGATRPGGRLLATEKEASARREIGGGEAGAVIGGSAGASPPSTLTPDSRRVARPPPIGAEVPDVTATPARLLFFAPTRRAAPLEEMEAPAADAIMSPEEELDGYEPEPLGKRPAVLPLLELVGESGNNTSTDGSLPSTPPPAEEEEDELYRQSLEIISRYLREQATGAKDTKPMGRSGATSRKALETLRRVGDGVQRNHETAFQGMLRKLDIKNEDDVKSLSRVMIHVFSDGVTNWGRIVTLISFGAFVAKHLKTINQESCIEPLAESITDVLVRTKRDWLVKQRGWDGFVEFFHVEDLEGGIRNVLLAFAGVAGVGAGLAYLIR
Procedure: Protein-Protein Interaction Assay: MCL-1/Noxa BH3 Peptide (MCL-1 Assay) […]
In the assay 11 different concentrations of each compound (0.1 nM, 0.33 nM, 1.1 nM, 3.8 nM, 13 nM, 44 nM, 0.15 μM, 0.51 μM, 1.7 μM, 5.9 μM and 20 μM) were typically measured as duplicates in the same microtiter plate. For that, 100-fold concentrated DMSO solutions were prepared by serial dilutions (1:3.4) of a 2 mM stock solution in a clear, 384-well microtiter plate (Greiner Bio-One, Frickenhausen, Germany). From there, 50 ni were transferred in a dark test plate (Greiner Bio-One, Frickenhausen, Germany). The assay was initiated by addition of 2 μl of a 2.5-fold concentrated MBP-MCL-1 solution (usually for a 1 nM end concentration in 5 μl reaction volume) in aqueous assay buffer [50 mM Tris/HCl pH 7, 100 mM sodium chloride (NaCl), 50 mM potassium fluoride (KF), 0.005% Tween-20, 2 mM DTT, 0.1% bovine gamma globulin (BGG)] to the compounds in the assay plate. This was followed by a 10-minute incubation step at 22° C. for pre-equilibration of the putative complex between MBP-MCL-1 and the compounds. After that.
The mixture was incubated in the dark for one hour at 22° C. and then overnight at 4° C. The formation of MCL-1/Noxa complexes was determined by measuring the resonance energy transfer of the anti-MBP- Eu-cryptate antibody to the streptavidin-XL665 present in the reaction. For that purpose, the fluorescence emission at 620 nm and 665 nm after excitation at 330-350 nm was measured in a TR-FRET measuring instrument, for instance a Rubystar or a Pherastar (both from BMG Lab Technologies, Offenburg, Germany) or a Viewlux (Perkin-Elmer). The ratio of the emission at 665 nm and at 622 nm was used as indicator of the amount of MCL-1/NOXA complexes present.
The resulting data (ratio) were normalized, taking 0% inhibition as the mean value of control measurements (usually 32 data points) where all reagents were included. In this case 50 nl DMSO were used instead of compounds. A 100% inhibition corresponded to the mean value of control measurements (usually 32 data points) where all reagents except MCL-1 were included. IC50 values were determined by regression analysis based on a 4 parameter equation (minimum, maximum, IC50, Hill; Y=Max+(Min−Max)/(1+(X/IC50)^Hill) using the Screener Software (Genedata).

SUDHL5 [5] = assay: Anti-proliferative effect (CellTiter-Glo, 72 h), SUDHL5; assay type: cell-based; details: Homo sapiens, SU-DHL-5, 72 h, SUDHL5 cells, antiproliferation, 72 h incubation, median, read-out: Antiproli SUDHL5 [M] (median)
Procedure: (§6) Assessment of the Anti-Proliferative Effect of Compounds in Different Cell Lines
(§7) The impact of compounds on the proliferation of different cell lines was assessed using the CellTiter-Glo® Luminescent Cell Viability reagent from Promega (G7573). Of note, SUDHL10 and SUDHL5 (DLBCL), NCI-H929 (Multiple Myeloma), A2780 (ovarian carcinoma) as well as MV-4-11(AML) cells are sensitive to MCL-1 inhibition.
(§8) In parallel, cells were plated in a reference (day 0) plate for time zero determination.
(§9) Rim wells were excluded. The cells were incubated for 72 h hours in a humidified incubator at 37° C. The day 0 plate was measured by adding 30 μl/well of CTG solution (CellTiter-Glo® Luminescent Cell Viability reagent, Promega G7573) to time zero wells in the reference plate followed by a 10 minutes incubation and luminescence reading at 0.1 ms, using the PHERAstar FS microplate reader (BMG Labtech).
(§10) After 72 h incubation, the treated plates were measured in the same way as the day 0 plate mentioned above.

A2780 = assay: Anti-proliferative effect (CellTiter-Glo, 72 h), A2780; assay type: cell-based; details: Homo sapiens, A2780, 72 h, A2780 cells, median, read-out: IC50 antiproliferation assay A2780 [M] (median)
Procedure: as §6, §7, §8, §9, §10

[6] = Homo sapiens, SU-DHL10, 5 h, read-out: Cytotox SUDHL10 [M] (median), SUDHL10 cells, cytotoxicity induction, CellTiter-Glo, 5 h incubation, median
[7] = Homo sapiens, SU-DHL-5, 5 h, read-out: Cytotox SUDHL5 [M] (median), SUDHL5 cells, cytotoxicity induction, CellTiter-Glo, 5 h incubation, median
[8] = read-out: Cytotox SUDHL10 [M] (median), SUDHL10 cells, cytotoxicity induction, CellTiter-Glo, 5 h incubation, median

EC50 (SUDHL5 [1]; Homo sapiens, SU-DHL-5, 3 h) [µM] | EC50 (SUDHL10 [4]; Homo sapiens, SU-DHL10, 3 h) [µM] | IC50 (MCL-1) [µM] | IC50 (A2780) [M] | EC50 (SUDHL5 [1]) | EC50 (SUDHL10 [4]) [µM] | SMILES | IC50 (SUDHL10 [2]; [6]) [M] | IC50 (SUDHL5 [3]; [7]) [M] | IC50 (SUDHL5 [5]) [M] | IC50 (SUDHL10 [2]; [8]) | IC50 (SUDHL5 [3]; read-out: Cytotox SUDHL5 [M] (median), SUDHL5 cells, cytotoxicity induction, CellTiter-Glo, 5 h incubation, median)
14.8 | 22.5 | – | – | – | – | CC(=O)N1CCN(c2ccc(OCc3nn(C)c4c3-c3cccc5c(CCCOc6cccc7ccccc67)c(C(=O)O)n(c35)CC=CCOC4)cc2)CC1 (racemic) [Example 1-1, (rac)-(E/Z)-3-{[4-(4-acetylpiperazin-1-yl)phenoxy]methyl}-1-methyl-7-[3-(naphthalen-1-yloxy)propyl]-1,10,13,25-tetrahydropyrazolo[4′,3′:9,10][1,6]oxazacycloundecino[8,7,6-hi]indole-8-carboxylic Acid] | > 3.3e-05 | > 3.3e-05 | – | – | –
> 33 | > 33 | 0.0706 | – | – | – | Cn1nc(COc2ccc(N3CCNCC3)cc2)c2c1COCC=CCn1c(C(=O)O)c(CCCOc3cccc4ccccc34)c3cccc-2c31 (racemic) [Example 1-2, (rac)-(E/Z)-1-methyl-7-[3-(naphthalen-1-yloxy)propyl]-3-{[4-(piperazin-1-yl)phenoxy]methyl}-1,10,13,15-tetrahydropyrazolo[4′,3′:9,10][1,6]oxazacycloundecino[8,7,6-hi]indole-8-carboxylic Acid] | > 3.3e-05 | > 3.3e-05 | – | – | –
> 33 | 31.8 | 0.0749 | – | – | – | CN1CCCn2c(C(=O)O)c(CCCOc3cccc4ccccc34)c3cccc(c32)-c2c(COCc3ccccc3)nn(C)c2C1 (racemic) [Example 1-93, (rac)-11-[(benzyloxy)methyl]-7,9-dimethyl-1-[3-(naphthalen-1-yloxy)propyl]-4,5,6,7,8,9-hexahydropyrazolo[3′,4′:7,8][1,5]diazecino[9,10,1-hi]indole-2-carboxylic Acid] | > 3.3e-05 | > 3.3e-05 | – | – | –
> 33 | > 33 | 0.141 | – | – | – | Cn1nc(COCc2ccccc2)c2c1COCC=CCn1c(C(=O)O)c(CCCOc3cccc4ccccc34)c3cccc-2c31 (racemic) [Example 1-94, (rac)-(E/Z)-3-[(benzyloxy)methyl]-1-methyl-7-[3-(naphthalen-1-yloxy)propyl]-1,10,13,15-tetrahydropyrazolo[4′,3′9,10][,6]oxazacycloundecino[8,7,6-hi]indole-8-carboxylic Acid] | > 3.3e-05 | > 3.3e-05 | – | – | –
14.1 | > 33 | 0.0131 | 1.96e-05 | – | – | Cn1nc2c(c1CN1CCOCC1)-c1cccc3c(CCCOc4cccc5ccccc45)c(C(=O)O)n(c13)CCCCOC2 (racemic) [Example 078, (rac)-2-Methyl-3-(morpholin-4-ylmethyl)-7-[3-(naphthalen-1-yloxy)propyl]-2,10,11,12,13,15-hexahydropyrazolo[4′,3′:9,10][1,6]oxazacycloundecino[8,7,6-hi]indole-8-carboxylic Acid] | – | – | – | – | –
> 33 | 20.7 | 0.656 | – | – | – | Cn1nc(COc2ccccc2)c2c1COCCCCn1c(C(=O)O)c(CCCOc3cccc4ccccc34)c3cccc-2c31 (single isomer, unassigned) [Example 1-79, 1-methyl-7-[3-(naphthalen-1-yloxy)propyl]-3-(phenoxymethyl)-1,10,11,12,13,15-hexahydropyrazolo[4′3′:9,10][1,6]oxazacycloundecino[8,7,6-hi]indole-8-carboxylic Acid] | 3.09e-05 | > 3.3e-05 | – | – | –
– | – | 0.0501 | – | > 33 µM | > 33 | Cn1nc(COc2ccccc2)c2c1COCCCCn1c(C(=O)O)c(CCCOc3cccc4ccccc34)c3cccc-2c31 (single isomer, unassigned) [Example 1-80, 1-methyl-7-[3-(naphthalen-1-yloxy)propyl]-3-(phenoxymethyl)-1,10,11,12,13,15-hexahydropyrazolo[4′,3′:9,10][1,6]oxazacycloundecino[8,7,6-hi]indole-8-carboxylic Acid] | – | – | – | > 3.3e-05 M | > 3.3e-05
– | – | 0.00145 | 2.28e-05 | 1.32 µM | 3.54 | Cc1ccc2c(CCCOc3cccc4ccccc34)c(C(=O)O)n3c2c1-c1c(nn(C)c1C)COCCCC3 (single isomer, unassigned; enantiomer 1) [Example 076, 2,3,4-trimethyl-7-[3-(naphthalen-1-yloxy)propyl]-2,10,11,12,13,15-hexahydropyrazolo[4′,3′:9,10][1,6]oxazacycloundecino[8,7,6-hi]indole-8-carboxylic Acid (Enantiomer 1)] | – | – | – | – | –
– | – | 0.0897 | – | 19.4 µM and > 33 µM | – | Cc1nn(C)c2c1-c1cccc3c(CCCOc4cccc5ccccc45)c(C(=O)O)n(c13)CCCN(c1ccc(N3CCN(S(=O)(=O)N(C)C)CC3)cc1)C2 (single isomer, unassigned; enantiomer 2) [Example 1-107, 7-{4-[4-(Dimethylsulfamoyl)piperazin-1-yl]phenyl}-9,11-dimethyl-1-[3-(1-naphthyloxy)propyl]-4,5,6,7,8,9-hexahydropyrazolo[3′,4′:7,8][1,5]diazecino[9,10,1-hi]indole-2-carboxylic Acid (Enantiomer 2)] | – | – | – | 2.89e-05 M and > 3.3e-05 M | –

SMILES | EC50 (SUDHL5 [1]; Homo sapiens, SU-DHL-5, 3 h) [µM] | EC50 (SUDHL10 [4]; Homo sapiens, SU-DHL10, 3 h) [µM] | IC50 (MCL-1) [µM] | IC50 (A2780) [M] | EC50 (SUDHL5 [1]) | EC50 (SUDHL10 [4]) [µM] | IC50 (SUDHL10 [2]; [6]) [M] | IC50 (SUDHL5 [3]; [7]) [M] | IC50 (SUDHL5 [5]) [M] | IC50 (SUDHL10 [2]; [8]) | IC50 (SUDHL5 [3]; read-out: Cytotox SUDHL5 [M] (median), SUDHL5 cells, cytotoxicity induction, CellTiter-Glo, 5 h incubation, median)
Cn1nc(COc2ccc(N3CCN(C(=O)OC(C)(C)C)CC3)cc2)c2c1COCCCCn1c(C(=O)O)c(CCCOc3cccc4ccccc34)c3cccc-2c31 (racemic) [Example 1-6, (rac)-3-({4-[4-(tert-butoxycarbonyl)piperazin-1-yl]phenoxy}methyl)-1-methyl-7-[3-(naphthalen-1-yloxy)propyl]-1,10,11,12,13,15-hexahydropyrazolo[4′,3′:9,10][1,6]oxazacycloundecino[8,7,6-hi]indole-8-carboxylic Acid] | 7.67 | 11.9 | 0.0187 | – | – | – | > 3.3e-05 | 1.15e-05 | 1.37e-06 | – | –
